Here are results for 73 compounds from paper PMC7822874, “Chemoprotective antimalarials identified through quantitative high-throughput screening of Plasmodium blood and liver stage parasites” (Scientific Reports, 2021).

This experiment relates to Plasmodium falciparum Dd2 asexual blood stage parasites. Description: microbe, parasite or virus in culture. Details: species or system Plasmodium falciparum Dd2 in human erythrocytes; single determination (one 11-point concentration-response curve). Particulars: Plasmodium falciparum, DD2, Erythrocyte, 72 h; read-out: AC50.
Regarding `COc1ccc(-c2noc(-c3cccn3CC(=O)Nc3ccccc3C)n2)cc1F` [NCGC00445484-01], the AC50 worked out at 5.31 µM.

`CC(=O)Oc1c(-c2ccc(NC(=O)CC(C)C)cc2)c(-c2ccc(F)cc2)nn1-c1ccc(F)cc1` [NCGC00473192-01]: the concentration at half-maximal activity (AC50) turned out to be 13.3 µM.

With `COc1ccc(-c2n[nH]c3ncc(-c4ccc([S+](C)(=O)[O-])cc4)nc23)c(C)c1` [NCGC00419180-01], the half-maximal activity concentration (AC50) amounted to 15.3 µM.

As to `O=c1oc2ccccc2c(N2CCCCC2)c1CN1CCCC1` [MLS000525481-01], the AC50 stood at 9.44 µM.

On to `CCC(Oc1ccccc1)C(=O)Nc1cc(C(F)(F)F)ccc1N1CCOCC1` (stereo not shown) [MLS001099270-01], for which the AC50 was determined as 7.5 µM.

For the compound `Cc1cccc(-n2c(/C=C/c3c(C)[nH]c4ccccc34)nc3ccccc3c2=O)c1` [NCGC00098794-01], the AC50 turned out to be 3.76 µM.

As for `CC(C)(C)OC(=O)N1CCC(c2c(C(=O)NCCN3CCc4ccccc4C3)cnn2-c2ccc(F)cc2F)CC1` [NCGC00127087-01], the AC50 is 5.31 µM.

As to `O=C(NCc1ccc(N2CCCC2)cc1)C1CCCN(c2cnn(Cc3ccccc3)c(=O)c2)C1` (stereo not shown) [NCGC00470327-01], the AC50 turned out to be 10.6 µM.

In the case of `COc1ccc(CN2CC3(CCN(C(=O)Nc4ccc(OC)c(F)c4)CC3)C2=O)cc1` [NCGC00460264-01], the AC50 worked out at 10.6 µM.

With `O=C(CCC1CCN(Cc2cccc3c2OCO3)CC1)NCc1cccc(C(F)(F)F)c1` [NCGC00426823-01], the AC50 was found to be 3.76 µM.

With `CCOC(=O)C(C)/C(C)=N/N=C(\N)S` (stereo not shown) [MLS000701955-01], the AC50 was found to be 2.66 µM.

With `CCOC(=O)c1c(CN2CCOCC2)n(-c2ccccc2)c2cc(Br)c(O)cc12` [MLS000530556-01], the AC50 was 2.99 µM.

For `Cc1oc2c(CN3CCCCC3)c(O)ccc2c(=O)c1-c1ccc(Cl)cc1` [MLS001214839-01], the AC50 was 5.31 µM.

Take `O=C(C[C@@H]1NCCC[C@H]1O)Cn1cnc2cc(Br)c(Cl)cc2c1=O` [NCGC00181132-01]: the AC50 turned out to be 2.37 µM.

Turning to `CCc1c(C)c2ccc(O)c(CN3CCN(c4ccccc4)CC3)c2oc1=O` [NCGC00119657-01], the AC50 turned out to be 2.37 µM.

For the compound `COc1cc(F)ccc1CNCc1cccnc1N1CCOCC1` [NCGC00425822-01], the AC50 stood at 10.6 µM.

As for `CC(C)c1ccc(-c2noc(SCC(=O)N(C)c3ccc(F)cc3)n2)cc1` [NCGC00127932-01], the AC50 turned out to be 0.944 µM.

With `CC(=O)Nc1ccc(Nc2cc(C)nc(Nc3ccc(NC(C)=O)cc3)n2)cc1` [MLS001359830-01], the AC50 came out at 3.35 µM.

With `Cc1cc(NC(=O)CSc2ccc3nnc(-c4cccc(F)c4)n3n2)no1` [MLS000093339-01], the AC50 turned out to be 5.96 µM.

For the compound `Cc1nc2cc(F)ccc2n1C1CCN(C(=O)c2c(F)cccc2F)CC1` [MLS000710077-01], the AC50 came to 5.96 µM.

As to `OC(COc1ccccc1CNCCc1ccccc1)CN1CCSCC1` (stereo not shown) [NCGC00427853-01], the AC50 was determined as 2.11 µM.

For the compound `CCC(C)(C)n1nnnc1C(c1cccnc1)N1CCN(c2cccc(C(F)(F)F)c2)CC1` (stereo not shown) [MLS000122548-01], the AC50 came out at 6.68 µM.

In the case of `O=c1cc(-c2ccccc2)[nH]c2ccc(F)cc12` [MLS000517821-01], the AC50 stood at 5.96 µM.

Consider `COc1ccccc1CNC(=O)[C@@H](C)C1CC[C@@]2(C)CC[C@H](NC(=O)c3cncnc3)[C@@H](C)[C@@H]2[C@H]1O` (stereo partly shown) [NCGC00395379-01], for which the AC50 came out at 2.37 µM.

With `C/C=C/c1cc(CN2CCN(c3ccccc3)CC2)c(O)c(OC)c1` [MLS001002110-01], the AC50 worked out at 5.96 µM.

Turning to `CCn1cc(CN2CC(Oc3ccc(-c4noc(-c5ccncc5)n4)cc3)C2)cn1` [NCGC00458017-01], the AC50 turned out to be 13.3 µM.

`OC(c1ccc(Cl)cc1)C(CN1CCOCC1)c1ccccc1` (stereo not shown) [MLS001173582-01]: the half-maximal activity concentration (AC50) was found to be 2.99 µM.

In the case of `CN1CCN(C(=O)c2ccc3c(c2)N(Cc2c(F)cccc2Cl)C(=O)c2ccccc2S3)CC1` [NCGC00108178-01], the AC50 amounted to 0.0596 µM.

Turning to `COc1ccc(N(CC(=O)NCc2ccccc2)C(=O)CCC(=O)Nc2cc(C)ccn2)c(OC)c1` [MLS000121471-01], the AC50 was 10.6 µM.

For the compound `CC(C)CN(Cc1cc(=O)oc2cc3c(cc12)CCCC3)CC(C)C` [MLS000763058-01], the AC50 was 15 µM.

Take `c1ccc(Sc2cccc3ccccc23)c(CNC2=NCCN2)c1` [MLS000702748-01]: the AC50 was determined as 13.3 µM.

`CCC(=O)Nc1ccc2nnc(-c3ccc(C(=O)Nc4ccc5c(c4)OCCO5)cc3)n2c1` [NCGC00429833-01]: the AC50 came out at 7.5 µM.

As for `CC1=C[C@@H](CN2CCN(c3ncccn3)CC2)[C@H](C(C)C)C[C@H]1Cc1nnc(COc2ccc(F)cc2)o1` [NCGC00395820-01], the concentration at half-maximal activity (AC50) was 0.75 µM.

With `COc1ccc2[nH]cc(CCNC(=O)C3(Cc4ccccc4)CCCCC(=O)N3)c2c1` (stereo not shown) [NCGC00456177-01], the AC50 amounted to 5.96 µM.

Turning to `CC(C)CN(CCNC(=O)c1cc(-c2ccc(Cl)s2)nc2ccccc12)CC(C)C` [NCGC00104475-01], the half-maximal activity concentration (AC50) worked out at 7.5 µM.

`O=C(c1cccc(O)c1)N1CC=C(c2cnc3cnc(-c4ccccc4)cn23)CC1` [NCGC00414040-01]: the AC50 amounted to 9.68 µM.

For the compound `CCn1cc(CN2CCCC(COc3ccccc3C(=O)N3CCCC3)C2)c2ccccc21` (stereo not shown) [NCGC00427142-01], the AC50 came to 8.41 µM.

For `COC(=O)[C@@H]1Cc2c([nH]c3ccccc23)[C@H]2C[C@H](N3CCCCC3)C[C@@H](c3ccccc3F)N21` [NCGC00421326-01], the AC50 turned out to be 5.96 µM.

As for `COc1ccccc1Cc1nc2ccccc2nc1SCC(=O)NCc1ccccc1Cl` [NCGC00133705-01], the AC50 came to 2.11 µM.

Take `CCc1ccc(Oc2c(C(F)(F)F)oc3c(CN4CCCC(C)C4)c(O)ccc3c2=O)cc1` (stereo not shown) [NCGC00101514-01]: the AC50 came to 1.33 µM.

`OC(CNC1CCCc2ccccc21)COc1c(Cl)cccc1Cl` (stereo not shown) [MLS000334339-01]: the AC50 came to 1.68 µM.

Turning to `COc1cccc(CN2CCCC(NCc3cc(C)ccc3-n3cccn3)C2)c1` (stereo not shown) [NCGC00427605-01], the AC50 came out at 2.99 µM.

For the compound `COc1ccc(-c2c3c(nc4sc(C(=O)Nc5ccc(F)cc5)c(N)c24)CC(C)(C)CC3=O)cc1` [NCGC00100718-01], the AC50 was found to be 0.944 µM.

With `Cc1noc(C)c1-c1cc2c(cc(-c3ccccc3)n2C)c(-c2cccnc2)n1` [NCGC00417168-01], the AC50 was 10.9 µM.

For the compound `O=C(Cc1ccccc1F)N1CCOc2ccc(CN3CCc4ccccc4C3)cc2C1` [NCGC00471206-01], the AC50 was determined as 13.3 µM.

Regarding `CN(C)C(C(=O)N1CCC(F)(F)CC1)c1ccccc1F` (stereo not shown) [NCGC00444487-01], the AC50 was 15 µM.

For the compound `CCCC(O)(c1ccc(Cl)cc1)C(CN1CCOCC1)c1ccc(Cl)cc1` (stereo not shown) [MLS001200366-01], the concentration at half-maximal activity (AC50) is 4.73 µM.

For `O=C(NCCc1c[nH]c2ccccc12)C(=O)Nc1cc2c3c(c1)CC(=O)N3CCC2` [MLS001361834-01], the AC50 came to 10.6 µM.

As to `Oc1ccccc1CN1CCOC[C@H]1c1nc(-c2ccc(C(F)(F)F)cc2)c[nH]1` [NCGC00394286-01], the AC50 was 4.85 µM.

With `COc1cccc([S+](=O)([O-])N2CCC3(CC2)CC(N(C)Cc2ccccc2)CCO3)c1` (stereo not shown) [NCGC00453781-01], the AC50 is 8.41 µM.

Take `COc1cccc(-c2nc(-c3c(C)noc3C)cc3c2cc(C)n3CCN(C)C)c1` [NCGC00417217-01]: the AC50 amounted to 17.2 µM.

In the case of `CC(C)(Oc1nn(Cc2cccc(Cl)c2)c2ccccc12)C(=O)NCCN1CCOCC1` [NCGC00419620-01], the AC50 was determined as 5.31 µM.

As to `CCCc1nn2c(=O)cc(COC(=O)c3cccc(NC(=O)COc4ccccc4C)c3)nc2s1` [NCGC00130805-01], the AC50 was 13.3 µM.

As for `O=C(Nc1ccc2c(N3CCCCC3)ncnc2c1)c1ccc(F)c(F)c1` [NCGC00425519-01], the AC50 was 4.73 µM.

In the case of `COC(=O)c1ccc(Nc2nnc(-c3ccc(C)c([S+](=O)([O-])N4CCN(C)CC4)c3)c3ccccc23)cc1` [NCGC00099996-01], the AC50 worked out at 8.41 µM.

With `COc1ccccc1CN1CCn2c(nn(-c3ccc([N+](=O)[O-])cc3)c2=O)C1` [NCGC00479607-01], the AC50 turned out to be 5.96 µM.

In the case of `CCN(CC)c1cc(C)c2cc(NC(=O)/C=C/c3cc(OC)c(OC)c(OC)c3)ccc2n1` [NCGC00104274-01], the AC50 was 4.73 µM.

On to `Cc1ccc([S+](=O)([O-])N[C@@H]2CN(C)C[C@H]2CN(C)C)cc1F` [NCGC00462728-01], for which the AC50 stood at 15 µM.

For the compound `CN1CCC2(CC1)CN(C(=O)CCc1ccccc1)Cc1ccccc1O2` [NCGC00456463-01], the AC50 amounted to 6.68 µM.

For `CNC(=O)CCn1ncc2cc(OCc3ccccc3-c3ccc(OC)cc3Cl)ccc21` [NCGC00418132-01], the AC50 was determined as 16.8 µM.

`CCOc1ccc2c(c1)OC(c1ccc(C)cc1)(C(F)(F)F)NC2=O` (stereo not shown) [MLS000392832-01]: the AC50 is 2.66 µM.

Regarding `COc1ccc(CCN(C)/C(S)=N/c2cccc(C)c2)cc1OC` [MLS001177860-01], the AC50 was determined as 2.11 µM.

For `CCCN1CCN(CCCNC(=O)c2ccc3c(c2)sc2nc(-c4ccc(OC)cc4)cn23)CC1` [NCGC00121829-01], the AC50 is 4.73 µM.

On to `CC1=C[C@@H](CNC(=O)COc2ccccc2)[C@H](C(C)C)C[C@H]1Cc1nnc(-c2cncn2C)o1` [NCGC00394594-01], for which the AC50 worked out at 13.3 µM.

As to `O=C(Nc1ccc(Cl)cc1)Nc1nc(-c2ccccc2O)cs1` [MLS000774885-01], the AC50 was determined as 6.68 µM.

Consider `CCOC(=O)C1(Cc2cccc(Cl)c2)CCCNC1` (stereo not shown) [NCGC00430131-01], for which the AC50 turned out to be 8.41 µM.

With `CC(Oc1ccccc1)C(=O)Nc1nc(-c2ccccn2)cs1` (stereo not shown) [MLS002158763-01], the AC50 was 8.41 µM.

As to `Cc1nc2sc(C(c3ccco3)N3CCN(C(c4ccccc4)c4ccccc4)CC3)c(O)n2n1` (stereo not shown) [MLS000101802-01], the AC50 is 5.96 µM.

Regarding `Cc1ccccc1Nc1nc(-c2cccnc2)cs1` [MLS001206645-01], the AC50 turned out to be 9.44 µM.

With `O=C1NCN(Cc2ccc(Cl)cc2)C12CCN(CC1CC1)CC2` [NCGC00478768-01], the AC50 was 9.68 µM.

For `CNC(=O)c1cc(-c2ccnc(N3CCOCC3)c2)cc2c1OCCN2Cc1cccnc1` [NCGC00417111-01], the AC50 was 8.41 µM.

Consider `Cc1ccc(CNCC(O)(c2ccccc2)c2ccc(Cl)cc2)cc1` (stereo not shown) [MLS000721405-01], for which the concentration at half-maximal activity (AC50) came to 2.99 µM.

As for `CN1CCOc2c(C(=O)NCc3cccnc3)cc(-c3cccc4[nH]ccc34)cc21` [NCGC00416962-01], the AC50 came to 8.63 µM.

A word on the AC50: it is the concentration at which the activity in the assay is half-maximal.
